Results reported in ChEMBL document CHEMBL1144975, “Improving the selectivity of acyclic nucleoside analogues as inhibitors of human mitochondrial thymidine kinase: replacement of a triphenylmethoxy moiety with substituted amines and carboxamides” (Bioorg Med Chem Lett, 2003).

Biological target: T1, Thymidine kinase, cytosolic (Homo sapiens, UniProt P04183)
T1 sequence (P04183 whole entry): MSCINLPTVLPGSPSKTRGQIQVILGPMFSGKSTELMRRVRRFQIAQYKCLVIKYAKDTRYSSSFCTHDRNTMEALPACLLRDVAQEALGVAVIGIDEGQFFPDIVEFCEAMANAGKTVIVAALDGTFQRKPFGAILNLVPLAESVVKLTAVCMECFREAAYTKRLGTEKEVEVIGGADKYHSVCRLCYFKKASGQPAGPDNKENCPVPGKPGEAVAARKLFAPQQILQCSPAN
Assay: Inhibitory concentration on phosphorylation of [methyl-3H]-dTh by human Thymidine Kinase 1

IC50: > 500 µM
SMILES: Cc1cn(C/C=C\CN(Cc2ccccc2)Cc2ccccc2)c(=O)[nH]c1=O
